Values joined by “and” are separate entries in the source; they are usually repeats but may differ in a detail not shown here. Equal values may be shown once. Toxic doses and inconclusive results are not listed. Rule as the data show it: active = T/C of 150% or more; inactive = T/C below 125%.
Test system: L1210 leukemia ip in BDF1 mice, survival T/C
Assay: NCI In Vivo Anticancer Drug Screen. Data for tumor model L1210 Leukemia (intraperitoneal) in B6D2F1 (BDF1) mice
Conditions: endpoint: mean survival time, higher = longer survival
Outline: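 Ratio derived from survival: compound-dosed mice over vehicle-dosed mice, all bearing a transplantable tumor.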

[1] = dose: 100.0 mg/kg/injection, schedule: Q01DX009 (ip), vehicle: saline
[2] = dose: 100.0 mg/kg/injection, schedule: Q04DX003 (ip), vehicle: saline
[3] = dose: 200.0 mg/kg/injection, schedule: Q01DX009 (ip), vehicle: saline
[4] = dose: 200.0 mg/kg/injection, schedule: Q04DX003 (ip), vehicle: saline
[5] = dose: 400.0 mg/kg/injection, schedule: Q04DX003 (ip), vehicle: saline
[6] = dose: 100.0 mg/kg/injection, schedule: Q04DX002 (ip), vehicle: Klucel (hydroxypropylcellulose) (HPC)
[7] = dose: 200.0 mg/kg/injection, schedule: Q04DX002 (ip), vehicle: Klucel (hydroxypropylcellulose) (HPC)
[8] = dose: 400.0 mg/kg/injection, schedule: Q04DX002 (ip), vehicle: Klucel (hydroxypropylcellulose) (HPC)
[9] = dose: 50.0 mg/kg/injection, schedule: Q01DX009 (ip), vehicle: Klucel (hydroxypropylcellulose) (HPC)
[10] = dose: 100.0 mg/kg/injection, schedule: Q01DX009 (ip), vehicle: Klucel (hydroxypropylcellulose) (HPC)
[11] = dose: 100.0 mg/kg/injection, schedule: Q04DX003 (ip), vehicle: Klucel (hydroxypropylcellulose) (HPC)
[12] = dose: 200.0 mg/kg/injection, schedule: Q01DX009 (ip), vehicle: Klucel (hydroxypropylcellulose) (HPC)
[13] = dose: 200.0 mg/kg/injection, schedule: Q04DX003 (ip), vehicle: Klucel (hydroxypropylcellulose) (HPC)
[14] = dose: 400.0 mg/kg/injection, schedule: Q04DX003 (ip), vehicle: Klucel (hydroxypropylcellulose) (HPC)
[15] = dose: 100.0 mg/kg/injection, schedule: Q04DX003 (ip), vehicle: saline with Tween-80
[16] = dose: 200.0 mg/kg/injection, schedule: Q04DX003 (ip), vehicle: saline with Tween-80
[17] = dose: 100.0 mg/kg/injection, schedule: Q01DX001 (ip), vehicle: saline

Measured: T/C

COc1cccc(NC2=CC(=O)C(=O)c3ccccc32)c1
inactive: dose: 100.0 mg/kg/injection, schedule: Q01DX001 (ip), vehicle: other 88 % of control | dose: 200.0 mg/kg/injection, schedule: Q01DX001 (ip), vehicle: other 92 % of control | dose: 400.0 mg/kg/injection, schedule: Q01DX001 (ip), vehicle: other 101 % of control

C=CCC(OC(=O)Nc1ccc(Cl)cc1)C1OC(c2ccccc2)OC2COC(c3ccccc3)OC21 (stereo unspecified)
inactive: dose: 100.0 mg/kg/injection, schedule: Q01DX001 (ip), vehicle: gum acacia 91 % of control | dose: 200.0 mg/kg/injection, schedule: Q01DX001 (ip), vehicle: gum acacia 91 % of control | dose: 400.0 mg/kg/injection, schedule: Q01DX001 (ip), vehicle: gum acacia 93 % of control

COc1nccnn1
inactive: dose: 100.0 mg/kg/injection, schedule: Q01DX001 (ip), vehicle: saline with Tween-80 93 % of control | dose: 200.0 mg/kg/injection, schedule: Q01DX001 (ip), vehicle: saline with Tween-80 103 % of control | dose: 400.0 mg/kg/injection, schedule: Q01DX001 (ip), vehicle: saline with Tween-80 101 % of control

CC(C)(CCC(C)(C)NCCC#N)NCCC#N
inactive: dose: 50.0 mg/kg/injection, schedule: Q01DX009 (ip), vehicle: saline 104 % of control | [1] 104 % of control | [2] 105 % of control | [3] 105 % of control | [4] 103 % of control | dose: 400.0 mg/kg/injection, schedule: Q01DX009 (ip), vehicle: saline 101 % of control | [5] 95 % of control

O=c1[nH]c2cc(Cl)ccc2c(CCl)c1Cl
inactive: dose: 25.0 mg/kg/injection, schedule: Q01DX009 (ip), vehicle: saline with Tween-80 92 % of control | dose: 50.0 mg/kg/injection, schedule: Q01DX009 (ip), vehicle: saline with Tween-80 94 % of control | dose: 100.0 mg/kg/injection, schedule: Q01DX009 (ip), vehicle: saline with Tween-80 89 % of control | dose: 100.0 mg/kg/injection, schedule: Q04DX003 (ip), vehicle: acetone 100 % of control

CCN(CCNc1cc(C)nc(/N=C(\N)Nc2ccc(Cl)c(Cl)c2)n1)CC(C)(C)O
inactive: dose: 75.0 mg/kg/injection, schedule: Q01DX001 (ip), vehicle: other 93 % of control | dose: 150.0 mg/kg/injection, schedule: Q01DX001 (ip), vehicle: other 95 % of control | dose: 300.0 mg/kg/injection, schedule: Q01DX001 (ip), vehicle: other 104 % of control

Nc1c(F)c(N)c(F)c(F)c1F
inactive: dose: 5.0 mg/kg/injection, schedule: Q01DX001 (ip), vehicle: acetone 98 % of control | dose: 10.0 mg/kg/injection, schedule: Q01DX001 (ip), vehicle: acetone 121 % of control | dose: 20.0 mg/kg/injection, schedule: Q01DX001 (ip), vehicle: acetone 107 % of control | dose: 20.0 mg/kg/injection, schedule: Q04DX002 (ip), vehicle: saline with Tween-80 106 % of control and 115 % of control | dose: 40.0 mg/kg/injection, schedule: Q01DX001 (ip), vehicle: acetone 106 % of control | dose: 40.0 mg/kg/injection, schedule: Q04DX002 (ip), vehicle: saline with Tween-80 95 % of control and 105 % of control | dose: 80.0 mg/kg/injection, schedule: Q01DX001 (ip), vehicle: acetone 101 % of control | dose: 80.0 mg/kg/injection, schedule: Q04DX002 (ip), vehicle: saline with Tween-80 98 % of control and 114 % of control

O=C(O)COc1cccc2ccc(Cl)cc12
inactive: [6] 101 % of control | [7] 90 % of control | [8] 96 % of control

CC1=CCC2(C)CCC(C(C)C)C2(O)CC1 (stereo unspecified)
inactive: [1] 91 % of control | [3] 93 % of control

Nc1ccc(Nc2ccccc2)cc1
inactive: [6] 100 % of control | [7] 104 % of control

C=C(CCCCC)C(=O)/C=C/c1ccc(Cl)cc1
inactive: [9] 103 % of control | [10] 97 % of control | [11] 102 % of control | [12] 95 % of control | [13] 100 % of control | [14] 103 % of control

Nc1ccc(NC(=O)C(=O)O)cc1
inactive: [15] 97 % of control | [16] 88 % of control

CN(CCN(N=O)C(N)=O)[N+](=O)[O-]
inactive: dose: 100.0 mg/kg/injection, schedule: Q04DX002 (ip), vehicle: other 98 % of control | dose: 200.0 mg/kg/injection, schedule: Q04DX002 (ip), vehicle: other 94 % of control | dose: 400.0 mg/kg/injection, schedule: Q04DX002 (ip), vehicle: other 109 % of control

[O-][n+]1ccccc1/C=C\c1ccccc1
inactive: [17] 92 % of control | dose: 200.0 mg/kg/injection, schedule: Q01DX001 (ip), vehicle: saline 94 % of control

C=C(C)COc1ccccc1
inactive: dose: 100.0 mg/kg/injection, schedule: Q01DX005 (ip), vehicle: Klucel (hydroxypropylcellulose) (HPC) 101 % of control | [10] 100 % of control | [6] 100 % of control | dose: 200.0 mg/kg/injection, schedule: Q01DX005 (ip), vehicle: Klucel (hydroxypropylcellulose) (HPC) 108 % of control | [12] 102 % of control | [7] 100 % of control | dose: 400.0 mg/kg/injection, schedule: Q01DX005 (ip), vehicle: Klucel (hydroxypropylcellulose) (HPC) 97 % of control | [8] 107 % of control

Nc1ccc(C(=O)O)cc1S(=O)(=O)O
inactive: dose: 100.0 mg/kg/injection, schedule: Q01DX001 (ip), vehicle: Klucel (hydroxypropylcellulose) (HPC) 102 % of control

COC(=O)C(C)Oc1ccc([N+](=O)[O-])c(O)c1[N+](=O)[O-] (stereo unspecified)
inactive: [11] 100 % of control | [13] 91 % of control | [14] 96 % of control

CCCCCC1SC1CC1SC1CCCCCCCC(=O)N(CCCC)CCCC (stereo unspecified)
inactive: dose: 30.0 mg/kg/injection, schedule: Q01DX001 (ip), vehicle: saline 102 % of control | [17] 96 % of control | dose: 300.0 mg/kg/injection, schedule: Q01DX001 (ip), vehicle: saline 89 % of control

CN(C)C(=N)CSS(=O)(=O)O
inactive: [6] 90 % of control | [7] 101 % of control

Nc1nc(-c2ccccc2)nc2nonc12
inactive: [15] 105 % of control | [16] 99 % of control | dose: 400.0 mg/kg/injection, schedule: Q04DX003 (ip), vehicle: saline with Tween-80 97 % of control

S=C=NC1CCC(CC2CCCCC2)CC1 (stereo unspecified)
inactive: dose: 25.0 mg/kg/injection, schedule: Q01DX009 (ip), vehicle: Klucel (hydroxypropylcellulose) (HPC) 105 % of control | [9] 94 % of control | [10] 93 % of control and 96 % of control | [11] 98 % of control | [13] 101 % of control | [14] 103 % of control

CN(C)CC1CC2(CC(CN(C)C)C1=O)OCCO2 (stereo unspecified)
inactive: dose: 9.38 mg/kg/injection, schedule: Q01DX001 (ip), vehicle: other 98 % of control | dose: 18.75 mg/kg/injection, schedule: Q01DX001 (ip), vehicle: other 97 % of control | dose: 37.5 mg/kg/injection, schedule: Q01DX001 (ip), vehicle: other 104 % of control

CC1(C)CN=C(c2ccc([N+](=O)[O-])cc2)O1
inactive: dose: 75.0 mg/kg/injection, schedule: Q04DX003 (ip), vehicle: Klucel (hydroxypropylcellulose) (HPC) 108 % of control | dose: 150.0 mg/kg/injection, schedule: Q04DX003 (ip), vehicle: Klucel (hydroxypropylcellulose) (HPC) 94 % of control | dose: 300.0 mg/kg/injection, schedule: Q04DX003 (ip), vehicle: Klucel (hydroxypropylcellulose) (HPC) 89 % of control

O=C(N/N=C/c1ccc(O)cc1)c1ccccc1NC(=O)C1CC1
inactive: [10] 104 % of control | [12] 89 % of control | dose: 400.0 mg/kg/injection, schedule: Q01DX009 (ip), vehicle: Klucel (hydroxypropylcellulose) (HPC) 93 % of control

CCN(CC)CC(=O)NCC(CCN1CCOCC1)c1cccc2ccccc12 (stereo unspecified)
inactive: [2] 96 % of control | [4] 100 % of control | [5] 93 % of control

COC(=O)c1cc(N2CC2)nc(SC)n1
inactive: dose: 6.0 mg/kg/injection, schedule: Q01DX Z (ip), vehicle: methylcellulose (MC) 96 % of control | dose: 12.0 mg/kg/injection, schedule: Q01DX Z (ip), vehicle: methylcellulose (MC) 96 % of control

— PubChem BioAssay AID248 (DTP/NCI, 2004)
